Measurements as given in US20140288074A1, “FUNGICIDAL PYRAZOLES” (E I DU PONT DE NEMOURS AND COMPANY, priority 2013, published 2014).
Marks after values point to notes of the source that are not given here.

Key:
Format in all cases: in vivo
[1] = tested on: Puccinia recondita f. sp. tritici; test: Test E: spray after inoculation of wheat seedlings, wheat leaf rust, visual disease rating; conditions: sprayed after inoculation with Puccinia recondita f. sp. tritici
Procedure: General protocol for preparing test suspensions for Tests A-G: the test compounds were first dissolved in acetone in an amount equal to 3% of the final volume and then suspended at the desired concentration (in ppm) in acetone and purified water (50/50 mix by volume) containing 250 ppm of the surfactant Trem® 014 (polyhydric alcohol esters). The resulting test suspensions were then used in Tests A-G. Each test was conducted in triplicate, and the results were averaged. Spraying a 200 ppm test suspension to the point of run-off on the test plants was the equivalent of a rate of 800 g/ha. Unless otherwise indicated, the rating values indicate a 200 ppm test suspension was used. (An asterisk “*” next to the rating value indicates a 40 ppm test suspension was used.) Wheat seedlings were inoculated with a spore suspension of Puccinia recondita f. sp. tritici (the causal agent of wheat leaf rust) and incubated in a saturated atmosphere at 20° C. for 24 h, and then moved to a growth chamber at 20° C. for 2 days. At the end of this time the, the test suspension was sprayed to the point of run-off on the wheat seedlings, and then the seedlings were moved back to the growth chamber at 20° C. for 4 days. Upon removal, visual disease ratings were made. Results for Tests A-G are given in Table A. In the Table, a rating of 100 indicates 100% disease control and a rating of 0 indicates no disease control (relative to the controls). A hyphen (-) indicates no test results.

Botrytis cinerea = test: Test A: preventive spray on tomato seedlings, tomato Botrytis, visual disease rating; conditions: for pest or weed control at 200 ppm / Test A rating (disease control): 200 ppm test suspension, Botrytis cinerea inoculated the day after spraying
How it was run: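 Tomato seedlings were sprayed to run-off with test suspension, 200 ppm (≈800 g/ha) unless marked 40 ppm, in acetone/water with surfactant. They were inoculated with Botrytis cinerea spores next day, held 48 h saturated at 20 °C, then 3 days at 24 °C. Disease control was rated visually, 0–100 relative to controls, in triplicate.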

Septoria nodorum = test: Test C: preventive spray on wheat seedlings, Septoria glume blotch, visual disease rating; conditions: for pest or weed control at 200 ppm / Test C rating (disease control): 200 ppm test suspension, Septoria nodorum inoculated the day after spraying
How it was run: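 Compounds suspended in acetone/water (50/50) with 250 ppm surfactant, sprayed to run-off at 200 ppm (40 ppm where marked); seedlings inoculated next day, held 48 h saturated at 24 °C, then 9 days at 20 °C. Visual rating 0–100% disease control versus controls, triplicate averaged.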

[2] = tested on: Puccinia recondita f. sp. tritici; test: Test F: preventive spray on wheat seedlings, wheat leaf rust, visual disease rating; conditions: for pest or weed control at 200 ppm / Test F rating (disease control): 200 ppm test suspension, Puccinia recondita f. sp. tritici inoculated the day after spraying
How it was run: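 Compounds in acetone/water (50/50) with 250 ppm Trem 014, sprayed to run-off on seedlings at 200 ppm (800 g/ha) or 40 ppm where marked. Inoculated next day, 24 h saturated atmosphere at 20° C then 6 days at 20° C; visual rating, 100 = full control vs controls, triplicate averaged.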

[3] = tested on: Blumeria graminis f. sp. tritici; test: Test G: preventive spray on wheat seedlings, wheat powdery mildew, visual disease rating;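 on all read-outs here: rated 8 days after spore dust inoculation at 20 °C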; conditions: for pest or weed control at 200 ppm / Test G rating (disease control): 200 ppm test suspension, Blumeria graminis f. sp. tritici inoculated the day after spraying
How it was run: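 Wheat seedlings sprayed to run-off with 200 ppm suspension (about 800 g/ha; asterisked values 40 ppm) in acetone/water with 250 ppm Trem 014. Inoculated next day with B. graminis spore dust and held at 20 °C for 8 days. Visual rating, 0–100 % disease control versus controls; triplicate, averaged.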

[4] = Parastagonospora nodorum, 264 h

SMILES | Test E rating (disease control) ([1]; 200 ppm test suspension) | pest or weed control at 200 ppm (Botrytis cinerea; 120 h) | pest or weed control at 200 ppm (Septoria nodorum; [4]) | pest or weed control at 200 ppm ([2]; 168 h) | pest or weed control at 200 ppm ([3]; 192 h) | Test A rating (disease control) (Botrytis cinerea) | Test C rating (disease control) (Septoria nodorum) | Test F rating (disease control) [2] | Test G rating (disease control) [3] | Test E rating (disease control) ([1]; 40 ppm test suspension (asterisk)) | pest or weed control at 40 ppm (Botrytis cinerea; 120 h, 40 ppm test suspension (asterisk), Botrytis cinerea) | pest or weed control at 40 ppm (Septoria nodorum; Parastagonospora nodorum, 264 h, 40 ppm test suspension (asterisk), Septoria nodorum) | pest or weed control at 40 ppm ([2]; 168 h, 40 ppm test suspension (asterisk), Puccinia recondita f. sp. tritici, preventive) | pest or weed control at 40 ppm ([3]; 192 h, 40 ppm test suspension (asterisk), Blumeria graminis f. sp. tritici)
Cc1nn(C)c(C(O)C(C)C)c1-c1ccc(F)cc1Cl (stereo not drawn) [Compound 2, 4-(2-chloro-4-fluorophenyl)-1,3-dimethyl-α-(1-methylethyl)-1H-pyrazole-5-methanol] | 26% | 100% | 0% | 99% | 97% |  |  |  |  |  |  |  |  | 
CCCNc1c(-c2ccc(Cl)cc2Cl)c(C)nn1C [Compound 3] | 0% |  |  |  |  | 65% | 0% | 0% | 0% |  |  |  |  | 
CCC(C)C(O)c1c(-c2c(F)cccc2F)c(C)nn1C (centres unmarked) [Compound 15] | 9% |  |  |  |  | 67% | 0% | 74% | 99% |  |  |  |  | 
CCC(C)C(O)c1c(-c2c(F)cccc2Cl)c(C)nn1C (stereo not drawn) [Compound 19, 4-(2-chloro-6-fluorophenyl)-1,3-dimethyl-α-(1-methylpropyl)-1H-pyrazole-5-methanol] |  |  |  |  |  |  |  |  |  | 0* % | 77% | 0% | 19% | 95%
CCCC(O)c1c(-c2c(F)cccc2Cl)c(C)nn1C (centres unmarked) [Compound 21] | 0% |  |  |  |  | 75% | 0% | 74% | 99% |  |  |  |  | 
Cc1nn(C)c(C(O)C2=CCCCC2)c1-c1c(F)cccc1F (centres unmarked) [Compound 10] | 0% |  |  |  |  | 99% | 0% | 86% | 85% |  |  |  |  | 
CCC(C)C(O)c1c(-c2ccc(F)cc2Cl)c(C)nn1C (stereo not drawn) [Compound 8, 4-(2-chloro-4-fluorophenyl)-1,3-dimethyl-α-(1-methylpropyl)-1H-pyrazole-5-methanol] | 0% | 95% | 0% | 100% | 99% |  |  |  |  |  |  |  |  | 
Cc1nn(C)c(C(O)CC(C)C)c1-c1c(F)cccc1Cl (centres unmarked) [Compound 20] | 0% |  |  |  |  | 92% | 0% | 86% | 99% |  |  |  |  | 
C=CCC(C)(C)C(O)c1c(-c2c(F)cccc2F)c(C)nn1C (centres unmarked) [Compound 12] | 0% |  |  |  |  | 0% | 0% | 41% | 99% |  |  |  |  | 
CCCC(O)c1c(-c2c(F)cccc2F)c(C)nn1C (centres unmarked) [Compound 14] | 0% |  |  |  |  | 33% | 0% | 74% | 99% |  |  |  |  | 
CCCCC(CC)C(O)c1c(-c2c(F)cccc2F)c(C)nn1C (centres unmarked) [Compound 13] | 0% |  |  |  |  | 0% | 0% | 28% | 96% |  |  |  |  | 
Cc1nn(C)c(NC2CCCCC2)c1-c1ccc(F)cc1F [Compound 6, N-cyclohexyl-4-(2,4-difluorophenyl)-1,3-dimethyl-1H-pyrazol-5-amine] | 68% | 99% | 0% | 17% | 91% |  |  |  |  |  |  |  |  | 
Cc1nn(C)c(C(O)C(C)(C)CCC#N)c1-c1c(F)cccc1F (centres unmarked) [Compound 9] | 0% |  |  |  |  | 26% | 0% | 9% | 53% |  |  |  |  | 
Cc1nn(C)c(C(O)CC(C)C)c1-c1c(F)cccc1F (centres unmarked) [Compound 11] | 0% |  |  |  |  | 67% | 0% | 89% | 99% |  |  |  |  | 
CCCCNc1c(-c2ccc(Cl)cc2Cl)c(C)nn1C [Compound 5, N-butyl-4-(2,4-dichlorophenyl)-1,3-dimethyl-1H-pyrazol-5-amine] | 79% | 98% | 0% | 27% | 58% |  |  |  |  |  |  |  |  | 
Cc1nn(C)c(NCC(C)C)c1-c1ccc(Cl)cc1Cl [Compound 4, 4-(2,4-dichlorophenyl)-1,3-dimethyl-N-(2-methylpropyl)-1H-pyrazol-5-amine] | 26% | 99% | 0% | 0% | 93% |  |  |  |  |  |  |  |  | 
